Test results taken from US20090012168A1, “ADIPONECTION INDUCERS OR SECRETAGOGUES” (AJINOMOTO CO., INC., priority 2004, published 2009).

Legend:
3T3-L1 cells = assay: Adiponectin concentration in culture supernatant of 3T3-L1 cells (LANCE method); assay type: cell-based, mouse; conditions: for Concentration of adiponectin in the case of adding one kind of amino acids to Zero medium: 3T3-L1 culture supernatant after 72 hour incubation, amino acid at fourfold of that in Full medium, average values, N=2, Zero medium 61; for concentration of adiponectin in the culture supernatant in mediums to which the amino acid was added: amino acid added to Zero medium at fourfold of Full medium; for concentration of adiponectin in the culture supernatant in mediums to which the amino acid was added / concentration of adiponectin in mediums without the amino acid: 72 hour incubation; for concentration of adiponectin in mediums without the amino acid: amino acid removed from Full medium; for production of adiponectin as compared with Zero medium (FIG. 1): 3T3-L1 cells, 72 hours, amino acid concentration changed in Zero medium, mixture equimolar
Description: 3T3-L1 cells were suspended in D-MEM medium containing 10% fetal bovine serum to become 1.5×10^5 cells/mL and seeded. After the incubation in the CO2 incubator at 37° C. for 72 hours, the medium was removed by suction. Then, the medium was exchanged for D-MEM medium containing 10 ug/mL of insulin, 1 uM of dexamethazone, 0.5 mM of IBMX (3-isobutyl-1-methylxanthine) and 10% fetal bovine serum, and further incubated in the CO2 incubator at 37° C. for 48 hours. After removing the medium, it was further exchanged for the medium wherein the concentrations of amino acids were changed, with addition of 10% dialyzed fetal bovine serum (F-0392, by SIGMA), and further incubated in CO2 incubator at 37° C. for 72 hours.
D-MEM medium contains, as amino acids, 30 mg/L of glycine (Gly); 35.6 mg/L of alanine (Ala); 42 mg/L of serine (Ser); 95 mg/L of threonine (Thr); 63 mg/L of cysteine (Cys)/2HCl; 30 mg/L of methionine (Met); 1168 mg/L of glutamine (Gln); 52.8 mg/L of asparagine (Asn); 58.8 mg/L of glutaminic acid (Glu); 106.4 mg/L of asparaginic acid (Asp); 94 mg/L of valine (Val); 105 mg/L of leucine (Leu); 105 mg/L of isoleucine (Ile); 66 mg/L of phenylalanine (Phe); 208 mg/L of tylosin (Tyr)/2Na/2H2O; 16 mg/L of triptophan (Trp); 146 mg/L of lysine (Lys)/HCl; 84 mg/L of arginine (Arg); 42 mg/L of histidine (His)/HCl/H2O; and 46 mg/L of proline (Pro). Regarding the expression of the mediums, for example, Δ Met indicates the medium having the same compositions of vitamins and salts as those of D-MEM medium and said medium wherein one kind of amino acids, methionine (Met), is removed. Full medium indicates the one containing all amino acids, and Zero medium indicates the one removing all amino acids.
Eu (Europium) chelate labeling of anti-mouse adiponectin antibody (AF1119, by R&D Systems) was conducted by using 100 ug of LANCE Eu-W1024-ITC chelate (AD0013 by Perkin Elmer), which is a Eu chelate labeling reagent, to 200 μg of the antibody in accordance with the method described in the manual. Biotin labeling of anti-mouse adiponectin antibody (AF1119, by R&D Systems) was conducted by using 26.8 ug of NHS-Biotin (1418165, Biotin Labeling Kit, by Boehringer Mannheim), which is a biotin labeling reagent, to 100 μg of the antibody in accordance with the method described in the manual.
The amount of adiponectin in the cell culture supernatant was measured as follows. The culture supernatant was diluted tenfold with TBS (Tris-buffered saline; 20 mM Tris-HCl pH7.4, 0.15M NaCl) containing 0.1% bovine serum albumin (BSA), and 10 μL thereof was mixed with 300 ng/mL of the Eu chelate labeled antibody, 300 ng/mL of the biotin labeled antibody and 10 μL of a solution (TBS containing 0.1% BSA) containing 2.5 μg/mL of Streptavidin-APC (AD0201, by Perkin Elmer) on the 384-well plate. After preserving the mixture at room temperature for 2 days, LANCE count was measured by using ARVO-SX multilabel counter (by Perkin Elmer) in accordance with the protocol of the LANCE method. At the same time, the mouse adiponectin preparation (8060-K, by LINCO) was also measured, and the concentration of adiponectin in the culture supernatant was calculated from the calibration curve of the preparation.

ob/ob mice [1] = assay: Non-fasting blood glucose of ob/ob mice given experimental diets; assay type: in vivo, mouse; conditions: experimental diet containing 4%, 17 days
Description: (§1) Male ob/ob mice of 5 week old (purchased from Charles River Laboratories Japan, Inc.) were preliminarily fed by a basic diet containing 25% by weight ratio of fats. Then, they were divided into groups so that their body weights and non-fasting blood glucose were the same between the groups. The used basic diet contained 17% by weight of casein and 48% by weight of starch in addition to 25% of lipids. Then, an experimental diet (containing 25% of fats) containing 4% of BCAA (its composition is a mixture of Leu, Ile and Val; their weight ratio is […]=1:1:1), Leu or Ile was provided to them. The control group was given an experimental diet wherein casein was increased by 4% from the basic diet instead of the amino acids (Control Group). As for the composition of each experimental diet, the starch content was adjusted so that each calorie per unit weight became the same. On the 17th day of provision of the experimental diet, their blood was collected and their blood glucose was measured to determine the adiponectin concentration in plasma. […] After extracting RNA, adiponectin mRNA was determined. The blood glucose of a mouse was measured by collecting 6 μL of its blood from the caudal vein and using a Fuji […] system (produced by FUJIFILM Medical Co., Ltd.). The adiponectin concentration in plasma was measured by the following method.

adiponectin mRNA = assay: Adiponectin mRNA in subcutaneous fats of ob/ob mice given experimental diets; assay type: in vivo, mouse; conditions: 23rd day of 4% diet, amended with β-actin mRNA
Description: Male ob/ob mice of 5 week old (purchased from Charles River Laboratories Japan, Inc.) were preliminarily fed by a basic diet containing 25% by weight ratio of fats. Then, they were divided into groups so that their body weights and non-fasting blood glucose were the same between the groups. The used basic diet contained 17% by weight of casein and 48% by weight of starch in addition to 25% of lipids. Then, an experimental diet (containing 25% of fats) containing 4% of BCAA (its composition is a mixture of Leu, Ile and Val; their weight ratio is Leu:Ile:Val=1:1:1), Leu or Ile was provided to them. The control group was given an experimental diet wherein casein was increased by 4% from the basic diet instead of the amino acids (Control Group). As for the composition of each experimental diet, the starch content was adjusted so that each calorie per unit weight became the same. On the 17th day of provision of the experimental diet, their blood was collected and their blood glucose was measured to determine the adiponectin concentration in plasma. Further, on the 23rd day after starting the provision of the experimental food, autopsy was conducted, and subcutaneous fats were collected to freeze for preservation. After extracting RNA, adiponectin mRNA was determined. […]

ob/ob mice [2] = assay: Adiponectin concentration in plasma of ob/ob mice given experimental diets; assay type: in vivo, mouse; conditions: experimental diet containing 4%, 17 days
Description: as §1, with “As for the composition of each experimental diet, the starch content was adjusted so that each calorie per unit weight became the same.” left out, “method. […] After leaving the mixture at room temperature for 2 days, LANCE count was measured by using ARVO-SX multilabel counter (by Perkin Elmer) in accordance with the protocol of the LANCE method. […]” for “method.”

Row | SMILES | Concentration of adiponectin in the case of adding one kind of amino acids to Zero medium (3T3-L1 cells) [ng/mL] | concentration of adiponectin in the culture supernatant in mediums to which the amino acid was added (3T3-L1 cells) | concentration of adiponectin in mediums without the amino acid (3T3-L1 cells) | non-fasting blood glucose as compared with before the start of providing the diet (FIG. 2) (ob/ob mice [1]) | amount of adiponectin mRNA in adipose tissues (FIG. 5) (adiponectin mRNA) | production of adiponectin as compared with Zero medium (FIG. 1) (3T3-L1 cells) | adiponectin concentration in plasma as compared with before the start of providing the diet (FIG. 3) (ob/ob mice [2])
1 | C[C@H](N)C(=O)O [Ala, alanine] | 98 | increased | – | – | – | – | –
2 | N[C@@H](CS)C(=O)O [Cys, cysteine] | 83 | increased | significantly decreased | – | – | – | –
3 | NC(=O)CC[C@H](N)C(=O)O [Gln, glutamine] | 21 | – | – | – | – | – | –
4 | CC[C@H](C)[C@H](N)C(=O)O [Ile, isoleucine] | 119 | increased | – | significantly decreased | tended to increase | increase of the production of adiponectin was seen | tended to increase
5 | CC(C)C[C@H](N)C(=O)O [Leu, leucine] | – | – | – | significantly decreased | tended to increase | increase of the production of adiponectin was seen | tended to increase
6 | CSCC[C@H](N)C(=O)O [Met, methionine] | 66 | – | significantly decreased | – | – | – | –
7 | CC(C)[C@H](N)C(=O)O [Val, valine] | 83 | increased | significantly decreased | – | – | increase of the production of adiponectin was seen | –
